Experimental data: ChEMBL document CHEMBL5518239, “Recent Advances on Small-Molecule Inhibitors of Lipocalin-like Proteins” (J Med Chem, 2024)

Tests used:
[1] = target: T1, Fatty acid-binding protein, adipocyte (Homo sapiens, UniProt P15090)
[2] = target: T2, Retinol-binding protein 1 (Homo sapiens, UniProt P09455)
T2 sequence (P09455 whole entry): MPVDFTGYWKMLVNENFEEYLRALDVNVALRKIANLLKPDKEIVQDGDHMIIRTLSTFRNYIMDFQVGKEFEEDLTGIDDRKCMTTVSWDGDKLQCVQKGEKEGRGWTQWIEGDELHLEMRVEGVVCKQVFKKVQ

[3] = target: Retinol-binding protein 4 (Homo sapiens, UniProt P02753)
[4] = target: T3, Fatty acid-binding protein, brain (Homo sapiens, UniProt O15540)
[5] = target: T4, Fatty acid-binding protein, heart (Homo sapiens, UniProt P05413)
[6] = target: T3, Fatty acid-binding protein, brain; remark: listed apart in the source
[7] = in vitro; conditions: human, liver microsomes
[8] = target: T1, Fatty acid-binding protein, adipocyte; remark: listed apart in the source
[9] = target: T4, Fatty acid-binding protein, heart; remark: listed apart in the source
[10] = target: T2, Retinol-binding protein 1; remark: listed apart in the source

With `O=C(O)Cc1cn(-c2ccccc2-c2nc(-c3ccc4ccccc4c3)c(-c3ccccc3)s2)nn1` the IC50 [1] was 1260 nM.

`Cc1ccc(C2(c3noc(CN(C)Cc4cccs4)n3)CCCC2)cc1` showed a Ki [2] of 7100 nM.

Work on `CC1=C(/C=C/C(C)=C/C=C/C(C)=C/C(=O)NCCO)C(C)(C)CCC1` yielded a Kd [3] of 131 nM.

`CC1=C(/C=C/C(C)=C/C=C/C(C)=C/C(=O)Nc2ccc(N(C)C)cc2)C(C)(C)CCC1` gave a Kd [3] of 131 nM.

Work on `O=C(O)Cc1cn(-c2ccccc2-c2nc(-c3ccccc3)c(-c3ccccc3)s2)nn1` yielded an IC50 [1] of 3980 nM.

`O=C(O)[C@H]1[C@H](c2ccccc2)[C@H](C(=O)Oc2cccc(C3=CCOCC3)c2)[C@H]1c1ccccc1` showed a Ki [4] of 830 nM.

`O=C(O)Cc1cn(-c2ccccc2-c2nc(-c3ccc(Cl)cc3)c(-c3ccccc3)s2)nn1` showed an IC50 [1] of 2510 nM.

For `Cc1ccc(C2(c3noc(CN(C)Cc4cnn(C)c4)n3)CCCC2)cc1`, the Ki [2] was 7100 nM.

In the case of `CC(c1cccs1)N(C)Cc1nc(C(c2ccccc2)c2ccccc2)no1` (stereo not given), the Ki [2] is reported as 7100 nM.

Work on `CC1=C(/C=C/C(C)=C/C=C/C(C)=C/C(=O)NCC(O)CO)C(C)(C)CCC1` (stereo not given) yielded a Kd [3] of 131 nM.

Compound `O=C(O)[C@H]1[C@@H](c2ccccc2)[C@H](C(=O)Oc2ccc3ccccc3c2)[C@@H]1c1ccccc1` has a Ki [5] of 3500 nM and a Ki [6] of 1300 nM.

`O=C(O)c1ccccc1NC(=O)N1CCC(c2ccccc2C(F)(F)F)CC1` showed a remaining at 0.5 h [7] of under 30%.

`CC1=C(/C=C/C(C)=C/C=C/C(C)=C/C(=O)N2CCOCC2)C(C)(C)CCC1` gave a Kd [3] of 131 nM.

With `CC1=C(/C=C/C(C)=C/C=C/C(C)=C/C(=O)Nc2ccc(OCC(=O)O)cc2)C(C)(C)CCC1` the Kd [3] was 131 nM.

Compound `O=C(Nc1cccc2ccccc12)[C@H]1[C@H](c2ccccc2)[C@H](C(=O)Nc2cccc3ccccc23)[C@H]1c1ccccc1` has a Ki [5] of over 10000 nM and a Ki [6] of 3300 nM.

For `C=C1CC[C@@H]2[C@](C)(CO)[C@H](O)CC[C@@]2(C)[C@@H]1C/C=C1/C(=O)OC[C@H]1O` [ANDROGRAPHOLIDE], the IC50 [8] was 900 nM.

`O=C(O)[C@H]1[C@@H](c2ccccc2)[C@H](C(=O)Oc2cccc3ccccc23)[C@@H]1c1ccccc1` showed a Ki [5] of 3600 nM and a Ki [4] of 400 nM.

`O=C(O)CCCOc1ccc(F)cc1-c1cc(-c2ccccc2C(F)(F)F)n(-c2ccccc2)n1` showed a Ki [9] of 24 nM.

With `O=C(O)[C@H]1[C@@H](c2ccccc2)[C@H](C(=O)Nc2cccc3ccccc23)[C@@H]1c1ccccc1` the Ki [5] was 2600 nM and the Ki [6] was 1500 nM.

Compound `C=C(C)C1CCCC[C@H]1c1c(O)cc(O)cc1CCCCC` (stereo not given in full) has a Ki [10] of 67 nM.

In the case of `COc1ccccc1[C@H]1[C@H](C(=O)O)[C@H](c2ccccc2OC)[C@H]1C(=O)Oc1ccccc1-c1ccccc1`, the Ki [5] is reported as 1590 nM.
